Results reported in patent US20160081917A1, “STEM CELL COMPOSITION FOR VENOUS ADMINISTRATION” (K-STEMCELL CO., LTD, priority 2013, published 2016).

Assays:
Assay type in all cases: cell-based, human
[1] = tested on: adipose mesenchymal stem cells; experiment: Viability and cell count after 5 days of incubation following suspension in saline containing aspirin lysine; settings: varying concentrations in physiological saline
Method: (§1) The adipose mesenchymal stem cells isolated in Example 1 were treated with trypsin, and then suspended at a concentration of 1.0×10^7 cells in physiological saline containing varying concentrations of aspirin lysine (Shin Poong Pharm. Co., Ltd, Korea). Then, the cells were incubated for 5 days, and the cell count of the cells was measured. In addition, the cells were cold-stored for 24 hours, and then the characteristics of the cells were analyzed by FACS.

[2] = tested on: adipose mesenchymal stem cells; experiment: FACS analysis of surface marker expression after suspension in saline containing aspirin lysine and cold storage
Method: as §1

[3] = tested on: adipose mesenchymal stem cells; experiment: Viability of stem cells suspended in physiological saline containing acetylsalicylic acid
Method: The adipose mesenchymal stem cells isolated in Example 1 were treated with trypsin, and then suspended at a concentration of 1.0×10^7 cells in physiological saline containing varying concentrations of acetylsalicylic acid (Sigma; A5376), after which the viability of the cells at 12 hours and 24 hours after the suspension was observed. The physiological saline containing acetylsalicylic acid was prepared by adding acetylsalicylic acid to physiological saline at varying concentrations and sonicating it at 37° C. for 30 minutes.

[4] = 0.1 mg/10 ml, cold-stored for 24 hours, FACS

Question: Which “cell viability depending on concentration” value [1] does the source give for CC(=O)Oc1ccccc1C(=O)O [aspirin lysine] here?
Answer: The value was “somewhat decreased depending on the concentration of aspirin lysine, but this decrease was not significant”.

Question: And the “count of the cells after 5 days of incubation” value [1]?
Answer: The value was “did not almost differ between the concentrations of aspirin lysine”.

Question: And the “Expression rate CD29” value [2, 4]?
Answer: Its value is 99.97%.

Question: And the “Expression rate CD31” value [2, 4]?
Answer: Its value is 0.21%.

Question: What about the “Expression rate CD44” value [2, 4] of the same compound?
Answer: Its value is 99.25%.

Question: What about the “Expression rate CD45” value [2, 4] of the same compound?
Answer: Its value is 0.17%.

Question: What about the “Expression rate CD90” value [2, 4] of the same compound?
Answer: Its value is 99.66%.

Question: And the “Expression rate CD105” value [2, 4]?
Answer: The value was 99.89%.

Question: What about the “characteristics of the adipose mesenchymal stem cells (FACS)” value ([2]; suspended 24 hours in aspirin-containing saline, then cold-stored 24 hours) of the same compound?
Answer: Its value is “not dependent on the concentration of aspirin lysine”.

Question: What does the source list for CC(=O)Oc1ccccc1C(=O)O [acetylsalicylic acid]?
Answer: cytotoxicity ([3]; 1.0 mg or more added to 10 ml of physiological saline): cytotoxic; Viability ([3]; 1.0 mg/10 ml in physiological saline, 12 hours after suspension): 50%; Viability ([3]; 1.0 mg/10 ml in physiological saline, 24 hours after suspension): 10%; Viability ([3]; 2.0 mg/10 ml in physiological saline, 12 hours after suspension): 20%; Viability ([3]; 2.0 mg/10 ml in physiological saline, 24 hours after suspension): 10%; Viability ([3]; 5.0 mg/10 ml in physiological saline, 12 hours after suspension): 10%; Viability ([3]; 5.0 mg/10 ml in physiological saline, 24 hours after suspension): 5%
